Laboratory results published in the supplement of paper PMC10883282.

How the values were obtained:
Assay in all cases: relative viability vs DMSO control (72 h) (fraction); higher = more viable cells
SW872 = tested on: SW872
Procedure, shortened: (§1)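 Sarcoma cell lines in 384-well plates, seeded to reach 80–90% confluence, were given compound after 24 h and kept 72 h at 37 °C, 5% CO2, with 0.1% DMSO vehicle and a 5 µM positive control. Relative viability came from ATPLite as percent growth, averaged over up to triplicate wells. On the rescaled values, 1 equals full and 0 equals none.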

VA-ES-BJ = tested on: VA-ES-BJ
Procedure, shortened: as §1

SW684 = tested on: SW684
Procedure, shortened: as §1

KHOS-NP = tested on: KHOS-NP
Procedure, shortened: as §1

RD = tested on: RD
Procedure, shortened: as §1

RD-ES = tested on: RD-ES
Procedure, shortened: as §1

MES-SA = tested on: MES-SA
Procedure, shortened: as §1

G401 = tested on: G401
Procedure, shortened: as §1

HT1080 = tested on: HT1080
Procedure, shortened: as §1

SW1353 = tested on: SW1353
Procedure, shortened: as §1

SK-ES-1 = tested on: SK-ES-1
Procedure, shortened: as §1

SK-LMS-1 = tested on: SK-LMS-1
Procedure, shortened: as §1

CCN(CC)CCNC(=O)c1c(C)[nH]c(/C=C2\C(=O)Nc3ccc(F)cc32)c1C [Sunitinib]
Conditions	relative viability
G401, 0.00017 µM	1.01
G401, 0.00051 µM	0.984
G401, 0.00152 µM	0.982
G401, 0.00457 µM	0.99
G401, 0.01372 µM	0.999
G401, 0.04115 µM	0.996
G401, 0.1235 µM	0.959
G401, 0.3704 µM	0.98
G401, 1.111 µM	0.892
G401, 3.333 µM	0.628
G401, 10 µM	0.00473
HT1080, 0.00017 µM	1.13
HT1080, 0.00051 µM	1.051
HT1080, 0.00152 µM	1.1
HT1080, 0.00457 µM	1.06
HT1080, 0.01372 µM	1.08
HT1080, 0.04115 µM	1.07
HT1080, 0.1235 µM	1.11
HT1080, 0.3704 µM	1.14
HT1080, 1.111 µM	1.06
HT1080, 3.333 µM	0.113
HT1080, 10 µM	0.00267
KHOS-NP, 0.00017 µM	1.04
KHOS-NP, 0.00051 µM	1.06
KHOS-NP, 0.00152 µM	1.05
KHOS-NP, 0.00457 µM	1.05
KHOS-NP, 0.01372 µM	1.06
KHOS-NP, 0.04115 µM	1.047
KHOS-NP, 0.1235 µM	1.069
KHOS-NP, 0.3704 µM	1.065
KHOS-NP, 1.111 µM	0.973
KHOS-NP, 3.333 µM	0.381
KHOS-NP, 10 µM	0.0257
MES-SA, 0.00017 µM	0.911
MES-SA, 0.00051 µM	0.927
MES-SA, 0.00152 µM	0.95
MES-SA, 0.00457 µM	0.917
MES-SA, 0.01372 µM	0.929
MES-SA, 0.04115 µM	0.905
MES-SA, 0.1235 µM	0.917
MES-SA, 0.3704 µM	0.83
MES-SA, 1.111 µM	0.578
MES-SA, 3.333 µM	0.305
MES-SA, 10 µM	-0.00247
RD, 0.00017 µM	1.11
RD, 0.00051 µM	1.11
RD, 0.00152 µM	1.13
RD, 0.00457 µM	1.13
RD, 0.01372 µM	1.12
RD, 0.04115 µM	1.11
RD, 0.1235 µM	1.14
RD, 0.3704 µM	1.1
RD, 1.111 µM	0.958
RD, 3.333 µM	0.0418
RD, 10 µM	0.00227
RD-ES, 0.00017 µM	0.955
RD-ES, 0.00051 µM	0.952
RD-ES, 0.00152 µM	0.968
RD-ES, 0.00457 µM	0.97
RD-ES, 0.01372 µM	0.964
RD-ES, 0.04115 µM	0.958
RD-ES, 0.1235 µM	0.895
RD-ES, 0.3704 µM	0.752
RD-ES, 1.111 µM	0.276
RD-ES, 3.333 µM	0.0097
RD-ES, 10 µM	0.00923
SK-ES-1, 0.00017 µM	0.997
SK-ES-1, 0.00051 µM	0.996
SK-ES-1, 0.00152 µM	1.08
SK-ES-1, 0.00457 µM	1.04
SK-ES-1, 0.01372 µM	1.02
SK-ES-1, 0.04115 µM	0.97
SK-ES-1, 0.1235 µM	0.931
SK-ES-1, 0.3704 µM	0.578
SK-ES-1, 1.111 µM	0.215
SK-ES-1, 3.333 µM	0.018
SK-ES-1, 10 µM	0.0034
SK-LMS-1, 0.00017 µM	1.11
SK-LMS-1, 0.00051 µM	1.13
SK-LMS-1, 0.00152 µM	1.08
SK-LMS-1, 0.00457 µM	1.07
SK-LMS-1, 0.01372 µM	1.12
SK-LMS-1, 0.04115 µM	1.1
SK-LMS-1, 0.1235 µM	1.09
SK-LMS-1, 0.3704 µM	1.02
SK-LMS-1, 1.111 µM	0.884
SK-LMS-1, 3.333 µM	0.706
SK-LMS-1, 10 µM	0.0084
SW684, 0.00017 µM	1.17
SW684, 0.00051 µM	1.16
SW684, 0.00152 µM	1.18
SW684, 0.00457 µM	1.15
SW684, 0.01372 µM	1.144
SW684, 0.04115 µM	1.17
SW684, 0.1235 µM	1.181
SW684, 0.3704 µM	1.07
SW684, 1.111 µM	0.871
SW684, 3.333 µM	0.609
SW684, 10 µM	0.001
SW872, 0.00017 µM	1.04
SW872, 0.00051 µM	1.05
SW872, 0.00152 µM	1.03
SW872, 0.00457 µM	1.03
SW872, 0.01372 µM	1.04
SW872, 0.04115 µM	1.02
SW872, 0.1235 µM	0.993
SW872, 0.3704 µM	0.81
SW872, 1.111 µM	0.587
SW872, 3.333 µM	0.416
SW872, 10 µM	-0.00493
SW1353, 0.00017 µM	0.978
SW1353, 0.00051 µM	0.994
SW1353, 0.00152 µM	0.968
SW1353, 0.00457 µM	0.984
SW1353, 0.01372 µM	0.951
SW1353, 0.04115 µM	0.972
SW1353, 0.1235 µM	0.981
SW1353, 0.3704 µM	1
SW1353, 1.111 µM	0.988
SW1353, 3.333 µM	0.017
SW1353, 10 µM	0.0071
VA-ES-BJ, 0.00017 µM	1.04
VA-ES-BJ, 0.00051 µM	1.03
VA-ES-BJ, 0.00152 µM	1.04
VA-ES-BJ, 0.00457 µM	1.04
VA-ES-BJ, 0.01372 µM	1.05
VA-ES-BJ, 0.04115 µM	1.045
VA-ES-BJ, 0.1235 µM	1.014
VA-ES-BJ, 0.3704 µM	0.962
VA-ES-BJ, 1.111 µM	0.745
VA-ES-BJ, 3.333 µM	0.597
VA-ES-BJ, 10 µM	-0.00367
